“And” between values parts separate entries of the source, which are not always exact repeats. Equal values may be shown once. “Also recorded” adds a separate entry of the source. Read-outs that look alike come from different tables or passages of the source.
Key:
six other mGlu subtypes = experiment: Activity at the six other mGlu subtypes; assay type: cell-based
mGlu3 [1] = biological target: T1, mGlu3 (Homo sapiens, UniProt Q14832); experiment: mGlu3 GIRK assay; assay type: cell-based
mGlu5 = mGlu5 (Homo sapiens, UniProt P41594); experiment: mGlu5 calcium assay; assay type: cell-based
mGlu3 [2] = biological target: T1, mGlu3; experiment: mGlu3 calcium assay, mGlu3 co-expressed with promiscuous G protein Gα15; assay type: cell-based
mGlu3 [3] = biological target: T1, mGlu3; experiment: Schild analysis, glutamate concentration-response in mGlu3 GIRK; assay type: cell-based; conditions: rightward shift and decreased maximal efficacy of glutamate
[4] = Metabolite ID in rat liver microsomes; assay type: in vitro ADME
[5] = Metabolite ID in human liver microsomes; assay type: in vitro ADME
[6] = Intrinsic clearance in rat liver microsomes; assay type: in vitro ADME
mGlu2 = mGlu2 (Homo sapiens, UniProt Q14416); experiment: mGlu2 GIRK assay; assay type: cell-based; conditions: mGlu3 NAM potency versus mGlu2 GIRK
[7] = Intrinsic clearance in human liver microsomes; assay type: in vitro ADME
[8] = tested on: 68 GPCRs, ion channels and transporters; experiment: Lead Profiling Screen at Ricerca, radioligand binding assays; conditions: screened at 10 μM, 68 targets
IP plasma:brain level = assay type: in vivo, rat; conditions: 10 mg/kg IP
[9] = 10% Tween80 in 0.5% methylcellulose

T1 sequence (Q14832 23-879): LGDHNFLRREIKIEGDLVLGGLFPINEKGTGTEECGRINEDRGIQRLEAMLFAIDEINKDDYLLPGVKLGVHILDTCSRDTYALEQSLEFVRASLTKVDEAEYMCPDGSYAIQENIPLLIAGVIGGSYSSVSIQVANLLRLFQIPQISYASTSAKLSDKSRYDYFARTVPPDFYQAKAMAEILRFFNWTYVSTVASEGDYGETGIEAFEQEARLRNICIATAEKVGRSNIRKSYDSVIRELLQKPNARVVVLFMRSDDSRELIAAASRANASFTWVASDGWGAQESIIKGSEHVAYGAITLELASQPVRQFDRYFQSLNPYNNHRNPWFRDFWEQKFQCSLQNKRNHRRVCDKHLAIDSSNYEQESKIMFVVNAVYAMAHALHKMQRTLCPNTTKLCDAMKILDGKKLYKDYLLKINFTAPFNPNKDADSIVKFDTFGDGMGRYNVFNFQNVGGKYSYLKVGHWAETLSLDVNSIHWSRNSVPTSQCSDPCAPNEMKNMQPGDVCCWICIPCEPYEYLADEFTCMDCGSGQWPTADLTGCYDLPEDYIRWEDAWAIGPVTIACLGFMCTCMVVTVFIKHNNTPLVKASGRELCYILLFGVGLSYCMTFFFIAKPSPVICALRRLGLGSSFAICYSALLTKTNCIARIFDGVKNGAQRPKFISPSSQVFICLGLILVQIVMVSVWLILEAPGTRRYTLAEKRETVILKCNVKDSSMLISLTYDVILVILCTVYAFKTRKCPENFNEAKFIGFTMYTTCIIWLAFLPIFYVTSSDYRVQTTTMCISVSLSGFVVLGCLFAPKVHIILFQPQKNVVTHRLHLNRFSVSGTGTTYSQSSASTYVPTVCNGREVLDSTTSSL
mGlu5, sequence (P41594 21-1212): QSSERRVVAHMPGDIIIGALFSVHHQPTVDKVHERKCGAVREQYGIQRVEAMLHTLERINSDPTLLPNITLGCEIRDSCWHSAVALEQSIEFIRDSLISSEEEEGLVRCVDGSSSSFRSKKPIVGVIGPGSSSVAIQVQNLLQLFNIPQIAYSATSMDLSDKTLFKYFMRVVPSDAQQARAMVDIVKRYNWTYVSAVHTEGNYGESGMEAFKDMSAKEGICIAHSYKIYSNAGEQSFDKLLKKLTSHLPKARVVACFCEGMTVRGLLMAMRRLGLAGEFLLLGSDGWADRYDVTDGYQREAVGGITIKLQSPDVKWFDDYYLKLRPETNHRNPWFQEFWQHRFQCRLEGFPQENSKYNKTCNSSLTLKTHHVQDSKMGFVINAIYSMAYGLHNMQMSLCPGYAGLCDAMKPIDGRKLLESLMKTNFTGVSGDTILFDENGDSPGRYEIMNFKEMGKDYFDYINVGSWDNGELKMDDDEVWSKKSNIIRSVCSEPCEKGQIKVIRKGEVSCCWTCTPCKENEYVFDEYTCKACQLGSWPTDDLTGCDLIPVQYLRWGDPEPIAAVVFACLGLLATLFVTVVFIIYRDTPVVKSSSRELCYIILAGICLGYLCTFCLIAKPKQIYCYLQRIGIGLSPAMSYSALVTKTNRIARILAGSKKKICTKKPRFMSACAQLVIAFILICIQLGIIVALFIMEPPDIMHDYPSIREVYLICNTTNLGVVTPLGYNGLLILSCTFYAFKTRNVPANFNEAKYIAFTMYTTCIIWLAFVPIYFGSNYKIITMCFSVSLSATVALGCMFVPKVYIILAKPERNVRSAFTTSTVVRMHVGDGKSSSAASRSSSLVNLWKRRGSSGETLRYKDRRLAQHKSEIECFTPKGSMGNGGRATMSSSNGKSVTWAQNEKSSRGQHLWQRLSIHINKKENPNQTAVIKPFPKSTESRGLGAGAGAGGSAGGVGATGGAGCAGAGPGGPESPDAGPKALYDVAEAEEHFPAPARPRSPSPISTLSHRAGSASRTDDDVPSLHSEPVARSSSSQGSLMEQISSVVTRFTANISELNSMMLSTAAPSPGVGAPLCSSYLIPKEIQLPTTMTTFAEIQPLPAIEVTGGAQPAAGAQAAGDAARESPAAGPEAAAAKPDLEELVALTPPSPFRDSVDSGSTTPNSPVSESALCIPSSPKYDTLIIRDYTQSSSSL
mGlu2, sequence (Q14416 19-872): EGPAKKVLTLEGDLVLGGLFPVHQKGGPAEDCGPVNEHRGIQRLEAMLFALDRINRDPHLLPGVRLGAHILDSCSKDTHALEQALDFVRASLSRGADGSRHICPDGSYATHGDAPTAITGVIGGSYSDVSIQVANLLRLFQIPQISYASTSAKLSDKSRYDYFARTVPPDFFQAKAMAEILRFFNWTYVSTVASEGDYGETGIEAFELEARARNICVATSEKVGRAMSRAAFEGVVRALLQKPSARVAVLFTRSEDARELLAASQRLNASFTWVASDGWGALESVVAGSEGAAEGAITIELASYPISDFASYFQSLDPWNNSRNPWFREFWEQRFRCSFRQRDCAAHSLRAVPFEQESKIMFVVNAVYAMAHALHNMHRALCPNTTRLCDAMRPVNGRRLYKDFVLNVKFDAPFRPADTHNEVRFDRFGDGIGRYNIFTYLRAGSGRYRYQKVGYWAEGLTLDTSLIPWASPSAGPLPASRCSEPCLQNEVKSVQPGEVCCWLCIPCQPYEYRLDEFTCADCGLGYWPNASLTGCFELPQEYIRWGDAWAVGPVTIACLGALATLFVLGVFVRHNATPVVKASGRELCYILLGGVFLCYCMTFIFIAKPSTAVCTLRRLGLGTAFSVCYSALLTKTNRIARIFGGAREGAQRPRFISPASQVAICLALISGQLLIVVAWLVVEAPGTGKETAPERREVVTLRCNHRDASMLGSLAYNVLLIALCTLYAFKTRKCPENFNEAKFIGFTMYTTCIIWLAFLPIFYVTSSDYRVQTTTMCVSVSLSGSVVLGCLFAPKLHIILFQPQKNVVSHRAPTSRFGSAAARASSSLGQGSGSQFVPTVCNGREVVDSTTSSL

O=C(c1ccc(C#Cc2ccccc2)cc1)N1CCC(O)CC1 [Compound 3]
activity at the six other mGlu subtypes (six other mGlu subtypes): no activity | IC50 (mGlu3 [1]; mGlu3 IC50, mGlu3 GIRK assay): ~10 µM and > 10 µM

COc1ccc(C#Cc2ccc(C(=O)N3CCCC(CO)C3)cc2)cc1 (stereo not drawn) [Compound 10e]
block of the glutamate EC80 (in words) (mGlu3 [1]; mGlu3 GIRK assay): full block

COc1ccc(C#Cc2ccc(C(=O)N3CCC[C@@H](CO)C3)cc2)cc1 [Compound 11]
activity/selectivity against mGlu5 (in words) (mGlu5): complete specificity versus mGlu5 | activity/selectivity against mGlu5 (in words) (mGlu5; listed as ML289): inactive; also recorded: highly selective versus mGlu5 | potentiation of an EC20 concentration of glutamate at mGlu5 (mGlu5; mGlu5 calcium assay, PAM mode): inactive | inhibition of an EC80 concentration of glutamate at mGlu5 (mGlu5; mGlu5 calcium assay, antagonist mode): inactive | % Glu Min (mGlu3 [2]): 2.1±0.3% | mechanism of mGlu3 antagonism (mGlu3 [3]): non-competitive (allosteric) mechanism of action | principle biotransformation pathway [4]: P450-mediated O-demethylation | principle biotransformation pathway [5]: P450-mediated O-demethylation | CLint scaled [6]: 240 mL/min/kg | selectivity versus mGlu2 (mGlu2): > 15 fold | CLint scaled [7]: 572 mL/min/kg | block of the glutamate EC80 (in words) (mGlu3 [1]; mGlu3 GIRK assay): full blockade | potency ratio of 11 over 12 (mGlu3 [1]; mGlu3 GIRK assay): 2 fold | inhibition of off-targets [8]: ≤ 25% | brain level (IP plasma:brain level; [9]): 16.3 µM | plasma level (IP plasma:brain level; [9]): 9.7 µM | free concentration in rat brain (IP plasma:brain level; based on brain homogenate binding): ~ 163 nM

COc1ccc(C#Cc2ccc(C(=O)N3CCC[C@H](CO)C3)cc2)cc1 [Compound 12]
block of the glutamate EC80 (in words) (mGlu3 [1]; mGlu3 GIRK assay): full blockade

From publication PMC3365510 (Bioorganic & medicinal chemistry letters, 2012)
